Experimental data published in US20100075965A1, “PI3 KINASE INHIBITORS AND METHODS OF THEIR USE” (Novartis AG, priority 2006, published 2010).

How the values were obtained:
A2780 cells = test: Viability assay in A2780 (Cell Titer Glo); format: cell-based, human; conditions: Homo sapiens; A2780 cells; read-out: A2780 Cell prolif. EC50
Outline: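 A2780 cells (1,000/well, DMEM + 10% FBS) were exposed to 3-fold serial dilutions of compound for 72 hrs at 37° C, 5% CO2. Viable cells were read by Cell Titer Glo luminescence, in duplicate, and EC50 values were derived from the curves.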

PI3 K Alpha = PI3 K Alpha (Homo sapiens, UniProt P42336); test: PI3 kinase phosphorylation assays (homogenous solution phase, one step solid phase, ATP depletion/KinaseGlo); format: biochemical; conditions: read-out: PI3K Alpha IC50
Sequence of PI3 K Alpha (P42336 whole entry): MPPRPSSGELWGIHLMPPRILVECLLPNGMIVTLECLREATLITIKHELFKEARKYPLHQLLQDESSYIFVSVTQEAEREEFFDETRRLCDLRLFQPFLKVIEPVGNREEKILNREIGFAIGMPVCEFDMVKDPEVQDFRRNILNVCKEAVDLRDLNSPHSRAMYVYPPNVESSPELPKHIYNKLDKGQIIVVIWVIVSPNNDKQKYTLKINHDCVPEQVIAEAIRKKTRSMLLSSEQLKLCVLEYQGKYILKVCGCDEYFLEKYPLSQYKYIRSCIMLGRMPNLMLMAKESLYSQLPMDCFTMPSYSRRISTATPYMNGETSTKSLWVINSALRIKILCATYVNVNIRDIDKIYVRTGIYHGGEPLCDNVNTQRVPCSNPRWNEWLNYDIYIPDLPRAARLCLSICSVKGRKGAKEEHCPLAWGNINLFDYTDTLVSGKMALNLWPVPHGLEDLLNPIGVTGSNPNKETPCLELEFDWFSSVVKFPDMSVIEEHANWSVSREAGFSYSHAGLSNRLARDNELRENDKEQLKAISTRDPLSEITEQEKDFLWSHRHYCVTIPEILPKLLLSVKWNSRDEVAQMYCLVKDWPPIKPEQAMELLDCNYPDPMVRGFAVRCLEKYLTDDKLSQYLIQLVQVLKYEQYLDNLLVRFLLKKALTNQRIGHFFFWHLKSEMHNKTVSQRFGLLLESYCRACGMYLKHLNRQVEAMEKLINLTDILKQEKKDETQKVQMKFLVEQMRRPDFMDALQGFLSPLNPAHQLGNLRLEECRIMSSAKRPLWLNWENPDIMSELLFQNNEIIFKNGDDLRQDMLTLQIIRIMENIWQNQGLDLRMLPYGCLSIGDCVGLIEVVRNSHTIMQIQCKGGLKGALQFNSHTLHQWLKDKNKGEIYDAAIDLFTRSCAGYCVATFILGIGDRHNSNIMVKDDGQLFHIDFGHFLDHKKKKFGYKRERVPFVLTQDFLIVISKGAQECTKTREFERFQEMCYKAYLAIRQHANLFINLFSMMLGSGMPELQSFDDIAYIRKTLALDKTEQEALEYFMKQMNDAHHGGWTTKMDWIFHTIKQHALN
Sequence of PI3 K Alpha (P27986 whole entry partner): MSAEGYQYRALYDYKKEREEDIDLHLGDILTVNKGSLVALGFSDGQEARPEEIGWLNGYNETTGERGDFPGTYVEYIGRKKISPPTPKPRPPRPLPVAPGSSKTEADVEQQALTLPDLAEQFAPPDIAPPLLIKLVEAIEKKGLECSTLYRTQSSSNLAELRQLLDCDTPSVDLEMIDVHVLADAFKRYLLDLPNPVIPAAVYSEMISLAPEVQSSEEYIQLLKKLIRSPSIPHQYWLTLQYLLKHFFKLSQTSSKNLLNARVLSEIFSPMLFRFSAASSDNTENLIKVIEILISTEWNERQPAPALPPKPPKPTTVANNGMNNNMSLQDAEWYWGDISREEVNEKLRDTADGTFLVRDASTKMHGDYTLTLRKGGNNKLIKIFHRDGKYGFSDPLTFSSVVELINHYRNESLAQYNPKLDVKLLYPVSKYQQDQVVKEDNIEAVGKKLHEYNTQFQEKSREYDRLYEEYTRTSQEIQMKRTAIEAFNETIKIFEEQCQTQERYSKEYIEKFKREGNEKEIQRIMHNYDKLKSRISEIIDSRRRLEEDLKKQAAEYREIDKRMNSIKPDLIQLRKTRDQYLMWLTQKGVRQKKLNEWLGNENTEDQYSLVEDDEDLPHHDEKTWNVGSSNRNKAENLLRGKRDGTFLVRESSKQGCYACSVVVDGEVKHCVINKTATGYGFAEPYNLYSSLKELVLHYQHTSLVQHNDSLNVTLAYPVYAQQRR

| SMILES | EC50 (A2780 cells) [µM] | IC50 (PI3 K Alpha) [µM] |
| --- | --- | --- |
| COC[C@@H]1CCCN1C(=O)Nc1cn2cc(-c3cnc(N)c(C(F)(F)F)c3)ccc2n1 [Example 165, (S)-N-(6-(6-amino-5-(trifluoromethyl)pyridin-3-yl)imidazo[1,2-a]pyridin-2-yl)-2-(methoxymethyl) pyrrolidine-1-carboxamide] | < 25 | < 1 |
| CC(C)(C)OC(=O)N1CCC[C@H]1C(=O)Nc1cn2nc(-c3cnc(N)c(C(F)(F)F)c3)ccc2n1 [Example 166, (S)-tert-butyl 2-(6-(6-amino-5-(trifluoromethyl)pyridin-3-yl)imidazo[1,2-b]pyridazin-2-ylcarbamoyl) pyrrolidine-1-carboxylate] | < 25 | < 1 |
| COc1cc(-c2ccc3nc(NC(C)=O)cn3c2C)cnc1N [Example 167, N-(6-(6-amino-5-methoxypyridin-3-yl)-5-methylimidazo[1,2-a]pyridin-2-yl)acetamide] | < 25 | < 1 |
| C=Cc1c(NC(C)=O)nc2ccc(-c3cnc(N)c(C(F)(F)F)c3)cn12 [Example 168, N-(6-(6-amino-5-(trifluoromethyl)pyridin-3-yl)-3-vinylimidazo[1,2-a]pyridin-2-yl)acetamide] | < 25 | < 1 |
| CC(C)(C)OC(=O)N1CC[C@H]1C(=O)Nc1cn2cc(-c3cnc(N)c(C(F)(F)F)c3)ccc2n1 [Example 169, (S)-tert-butyl 2-(6-(6-amino-5-(trifluoromethyl)pyridin-3-yl)imidazo[1,2-a]pyridin-2-ylcarbamoyl) azetidine-1-carboxylate] | < 25 | < 1 |
| CC(=O)Nc1cn2cc(-c3cnc(N)c(C(F)(F)F)c3)c(F)cc2n1 [Example 171, N-(6-(6-amino-5-(trifluoromethyl)pyridin-3-yl)-7-fluoroimidazo [1,2-a]pyridin-2-yl)acetamide] | < 25 | < 1 |
| CC(=O)N1CCC[C@H]1C(=O)Nc1cn2cc(-c3cnc(N)c(C(F)(F)F)c3)ccc2n1 [Example 172, (S)-1-acetyl-N-(6-(6-amino-5-(trifluoromethyl)pyridin-3-yl)imidazo[1,2-a]pyridin-2-yl)pyrrolidine-2-carboxamide] | < 25 | < 1 |
| CC(=O)Nc1cn2cc(-c3cnc(N)c(CN4CCCC4)c3)ccc2n1 [Example 173, N-(6-(6-amino-5-(pyrrolidin-1-ylmethyl)pyridin-3-yl)imidazo[1,2-a]pyridin-2-yl)acetamide] | < 25 | < 1 |
| CC(C)(C)OC(=O)N1CCC1C(=O)Nc1cn2cc(-c3cnc(N)c(OCC(F)(F)F)n3)ccc2n1 (stereo not shown) [Example 174, tert-butyl 2-(6-(5-amino-6-(2,2,2-trifluoroethoxy)pyrazin-2-yl)imidazo[1,2-a]pyridin-2-ylcarbamoyl) azetidine-1-carboxylate] | < 25 | < 1 |
| Nc1ncc(-c2ccc3nc(NC(=O)N4CCCC4c4ccccn4)cn3c2)cc1C(F)(F)F (stereo not shown) [Example 175, N-(6-(6-amino-5-(trifluoromethyl)pyridin-3-yl)imidazo[1,2-a]pyridin-2-yl)-2-(pyridin-2-yl)pyrrolidine-1-carboxamide] | < 25 | < 1 |
| CC(=O)Nc1cn2nc(-c3cnc(N)c(N4CCOCC4)n3)ccc2n1 [Example 176, N-(6-(5-amino-6-morpholino-pyrazin-2-yl)imidazo[1,2-b]pyridazin-2-yl)acetamide] | < 25 | < 1 |
| Cc1ccc(C2CCCN2C(=O)Nc2cn3cc(-c4cnc(N)c(C(F)(F)F)c4)ccc3n2)s1 (stereo not shown) [Example 180, N-(6-(6-amino-5-(trifluoromethyl)pyridin-3-yl)imidazo[1,2-a]pyridin-2-yl)-2-(5-methyithiophen-2-yl)pyrrolidine-1-carboxamide] | < 25 | < 1 |
| CCN(CC)Cc1cc(-c2ccc3nc(NC(C)=O)cn3c2)cnc1N [Example 181, N-(6-(6-amino-5-((diethylamino)methyl)pyridin-3-yl)imidazo[1,2-a]pyridin-2-yl)acetamide] | < 25 | < 1 |
| CC(=O)Nc1cn2cc(-c3cnc(N)c(-c4ccc(F)cc4)c3)ccc2n1 [Example 183, N-(6-(6-amino-5-(4-fluorophenyl)pyridin-3-yl)imidazo[1,2-a]pyridin-2-yl)acetamide] | < 25 | < 1 |
| Nc1ncc(-c2ccc3nc(NC(=O)C4CCN4)cn3n2)cc1C(F)(F)F (stereo not shown) [Example 189] | < 10 | < 1 |
| Nc1ncc(-c2ccc3nc(NC(=O)N4CCCC4C(F)(F)F)cn3c2)cc1C(F)(F)F (stereo not shown) [Example 191] | < 10 | < 1 |
| CC(C)(C)OC(=O)N1CC(C(=O)Nc2cn3nc(-c4cnc(N)c(C(F)(F)F)c4)ccc3n2)C1 [Example 197, tert-butyl 3-(6-(6-amino-5-(trifluoromethyl)pyridin-3-yl)imidazo[1,2-b]pyridazin-2-ylcarbamoyl) azetidine-1-carboxylate] | < 10 | < 1 |
| Nc1ncc(-c2ccc3nc(NC(=O)CN4CCCCC4)cn3c2)cc1C(F)(F)F [Example 198, N-(6-(6-amino-5-(trifluoromethyl)pyridin-3-yl)imidazo[1,2-a]pyridin-2-yl)-2-(piperidin-1-yl)acetamide] | < 10 | < 1 |
| CCOCC(=O)Nc1cn2cc(-c3cnc(N)c(C(F)(F)F)c3)ccc2n1 [Example 199, N-(6-(6-amino-5-(trifluoromethyl)pyridin-3-yl)imidazo[1,2-a]pyridin-2-yl)-2-ethoxyacetamide] | < 10 | < 1 |
| COCCOc1nc(-c2ccc3nc(NC(=O)CN4CCCCC4)cn3c2)cnc1N [Example 202, N-(6-(5-amino-6-(2-methoxyethoxy)pyrazin-2-yl)imidazo[1,2-a]pyridin-2-yl)-2-(piperidin-1-yl)acetamide] | < 10 | < 1 |
| CC(C)(C)OC(=O)NCC(=O)Nc1cn2cc(-c3cnc(N)c(C(F)(F)F)c3)ccc2n1 [Example 203, tert-butyl 2-(6-(6-amino-5-(trifluoromethyl)pyridin-3-yl)imidazo[1,2-a]pyridin-2-ylamino)-2-oxoethylcarbamate] | < 10 | < 1 |
| CC(=O)Nc1cn2cc(-c3ccc(N)nc3F)ccc2n1 [Example 210, N-(6-(6-amino-2-fluoropyridin-3-yl)imidazo[1,2-a]pyridin-2-yl)acetamide] | < 10 | < 1 |

The remaining lines, values ahead:

| EC50 (A2780 cells) [µM] | IC50 (PI3 K Alpha) [µM] | SMILES |
| --- | --- | --- |
| < 25 | < 1 | CC(=O)Nc1cn2nc(-c3cnc(N)cn3)ccc2n1 [Example 170] |
| < 25 | < 1 | Nc1ncc(-c2ccc3nc(NC(=O)c4ccccn4)cn3c2)cc1C(F)(F)F [Example 177] |
| < 25 | < 1 | Nc1ncc(-c2ccc3nc(NC(=O)[C@H]4CCCN4)cn3n2)cc1C(F)(F)F [Example 178, (R)-N-(6-(6-amino-5-(trifluoromethyl)pyridin-3-yl)imidazo[1,2-b]pyridazin-2-yl)pyrrolidine-2-carboxamide] |
| < 25 | < 1 | CC(C)(C)OC(=O)N1CCC[C@@H]1C(=O)Nc1cn2nc(-c3cnc(N)c(C(F)(F)F)c3)ccc2n1 [Example 179, (R)-tert-butyl amino-5-(trifluoromethyl) pyridin-3-yl)imidazo[1,2-b]pyridazin-2-ylcarbamoyl) pyrrolidine-1-carboxylate] |
| < 25 | < 1 | CC(=O)N1CCC[C@H]1C(=O)Nc1cn2cc(-c3cnc(N)c(Cl)c3)ccc2n1 [Example 182, (S)-1-acetyl-N-(6-(6-amino-5-chloropyridin-3-yl)imidazo[1,2-a]pyridin-2-yl)pyrrolidine-2-carboxamide] |
| < 10 | < 1 | CCC(=O)Nc1cn2cc(-c3cnc(N)c(OC)n3)ccc2n1 [Example 185, N-(6-(5-amino-6-methoxypyrazin-2-yl)imidazo[1,2-a]pyridin-2-yl)propionamide] |
| < 10 | < 1 | CC(=O)Nc1cn2nc(-c3cnc(N)c(-c4cccc(C(F)(F)F)c4)c3)ccc2n1 [Example 186, N-(6-(6-amino-5-(3-(trifluoromethyl)phenyl)pyridin-3-yl)imidazo[1,2-b]pyridazin-2-yl)acetamide] |
| < 10 | < 1 | Nc1ncc(-c2ccc3nc(NC(=O)c4cccc(F)c4)cn3c2)cc1C(F)(F)F [Example 192, N-(6-(6-amino-5-(trifluoromethyl)pyridin-3-yl)imidazo[1,2-a]pyridin-2-yl)-3-fluorobenzamide] |
| < 10 | < 1 | Nc1ncc(-c2ccc3nc(NC(=O)COC4CCNCC4)cn3c2)cc1C(F)(F)F [Example 200, N-(6-(6-amino-5-(trifluoromethyl)pyridin-3-yl)imidazo[1,2-a]pyridin-2-yl)-2-(piperidin-4-yloxy)acetamide] |
| < 10 | < 1 | CC(=O)Nc1cn2cc(-c3cnc(N)c(N4CCOCC4)n3)ccc2n1 [Example 201, N-(6-(5-amino-6-morpholino-pyrazin-2-yl)imidazo[1,2-a]pyridin-2-yl)acetamide] |
| < 10 | < 1 | CCN/N=C/c1cc(-c2ccc3nc(NC(C)=O)cn3c2)cnc1N [Example 207, (E)-N-(6-(6-amino-5-((2-ethylhydrazono)methyl)pyridin-3-yl)imidazo[1,2-a]pyridin-2-yl)acetamide] |
| < 10 | < 1 | CC(=O)Nc1cn2cc(-c3cnc(N)c(OCC4CCN(C)CC4)n3)ccc2n1 [Example 209, N-(6-(5-amino-6-((1-methylpiperidin-4-yl)methoxy)pyrazin-2-yl)imidazo[1,2-a]pyridin-2-yl)acetamide] |
| < 10 | < 1 | CC(=O)Nc1cn2nc(-c3cnc(N)c(C(=O)NCCN4CCCC4)c3)ccc2n1 [Example 211, 5-(2-acetamido-imidazo[1,2-b]pyridazin-6-yl)-2-amino-N-(2-(pyrrolidin-1-yl)ethyl) nicotinamide] |
